What all share (assay type): in vitro ADME
One data set addresses T1, CYP2D6 (Homo sapiens, UniProt P10635).
T1 construct: pooled human liver microsomes; tissue BioIVT; host or cells: pooled human liver microsomes
As to the kind of experiment: CYP450 inhibition in HLM, bufuralol probe. As to conditions: read-out: IC50 CYP450 2D6.

Data set [1] in a line: Metabolic stability in rat liver microsomes. As to conditions: RLM; for Clh, int (predicted hepatic clearance): scaled; for Clh (predicted in vivo hepatic clearance): well-stirred model; for half-life at 0.5 µM / microsomal CLint at 0.5 µM: rat, pooled rat liver microsomes, pH 7.4. The method, then: (§1) The metabolic stability of the test compounds was measured following incubation with liver microsomes from humans (BioIVT, lot no. IHG; West Sussex, UK) and rats (BD Gentest, lot no. 60614; BD Biosciences, Milan, Italy). Verapamil and dextromethorphan were used as positive controls. An automated incubation procedure was performed using the RSP Freedom Evo liquid dispensing and incubation system (TECAN, Milan, Italy). Five microliters of 50 µM test compound or positive control were added to 445 µL of microsomal suspension in 96 deep-well plates. The microsomal preparation comprised 0.56 mg/mL of pooled and homogenized liver microsomes suspended in 50 mM potassium phosphate buffer, pH 7.4. After 5 min at 37 °C, the reactions were initiated by adding 50 µL of prewarmed NADPH regenerating buffer to each sample. The regenerating buffer comprised a 2% NaHCO3 solution containing 1.7 mg NADP, 7.8 mg glucose-6-phosphate, and 6 units of glucose-6-phosphate dehydrogenase per mL. The samples were incubated at 37 °C, and 50 µL aliquots were withdrawn after 0, 3, 10, 15, 30, and 45 min and quenched in 150 µL acetonitrile. […] The analytical column was a Synergi “Max-RP” reverse phase C12 with TMS endcapping (30 mm × 2 mm, 4 µm particle size) (Phenomenex, Inc., Bologna, Italy). The column temperature was maintained at 60 °C. […] Analytes were quantified in multiple reaction-monitoring mode. Peak areas were integrated using Integrator Software from Agilent (Agilent Technologies, Milan, Italy) and were divided by the peak areas of the internal standard. The percentage of parent compound remaining was calculated by normalizing the peak area ratio of the parent compound to that of the internal standard at time 0. The half-lives of compound metabolism were derived from the linear portion of the slope of ln percent parent compound vs time. Intrinsic clearance in liver microsomes was estimated from: (1) Clint=k×(V/M) (2) Clh, int=(Clint (×1st Scaling factor)×2^ndScaling factor) (3) Clh=(Q×Clh, int)/(Q+Clh, int).
(§2) Here, k is the rate of depletion of the parent compound ([…]), V is the volume of the reaction mixture in mL, and M is the concentration of microsomal protein (in mg/mL). The amounts of protein in the incubations were scaled relative to the average liver- and body-mass of each species to obtain intrinsic hepatic clearance (Clh, int, in […]) (Table S3). These scaling factors were used along with the average hepatic blood flow (Q, in […]) of each species to obtain in vivo correlations (Clh, in mL/min/kg) using the well-stirred model.

A further data set addresses T2, CYP3A4 (Homo sapiens, UniProt P08684).
T2 construct: pooled human liver microsomes; tissue BioIVT; host or cells: pooled human liver microsomes
As to the kind of experiment: CYP450 inhibition in HLM, atorvastatin, nifedipine and midazolam probes. The procedure: All incubations were carried out in triplicate.
The column temperature was maintained at 60 °C. […] The column temperature was maintained at 45 °C. […] The analytes were quantified in multiple reaction-monitoring mode.

Data set [2] is described as follows: Metabolic stability in human liver microsomes. As to conditions: HLM; for Clh, int (predicted hepatic clearance): scaled; for Clh (predicted in vivo hepatic clearance): well-stirred model; for half-life at 0.5 µM / microsomal CLint at 0.5 µM: human, pooled human liver microsomes, pH 7.4. The procedure:
as §1, §2

Another data set has as its target T3, CYP2C8 (Homo sapiens, UniProt P10632).
T3 construct: pooled human liver microsomes; tissue BioIVT; host or cells: pooled human liver microsomes
T3 sequence (P10632 1-490): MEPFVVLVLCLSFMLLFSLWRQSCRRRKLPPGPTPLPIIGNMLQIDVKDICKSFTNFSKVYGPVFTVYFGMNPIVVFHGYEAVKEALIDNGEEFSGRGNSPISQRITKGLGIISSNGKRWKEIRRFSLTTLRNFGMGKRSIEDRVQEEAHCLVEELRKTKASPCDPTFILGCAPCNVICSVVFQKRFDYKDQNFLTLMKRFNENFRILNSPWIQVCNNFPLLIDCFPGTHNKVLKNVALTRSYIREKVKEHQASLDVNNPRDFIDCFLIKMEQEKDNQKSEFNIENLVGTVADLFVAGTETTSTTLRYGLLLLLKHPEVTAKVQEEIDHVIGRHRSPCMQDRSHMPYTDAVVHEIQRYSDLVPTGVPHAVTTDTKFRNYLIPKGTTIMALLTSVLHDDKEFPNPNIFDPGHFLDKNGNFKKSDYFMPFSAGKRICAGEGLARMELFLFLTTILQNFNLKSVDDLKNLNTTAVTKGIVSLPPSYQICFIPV
The experiment in a line: CYP450 inhibition in HLM, rosiglitazone probe. As to conditions: read-out: IC50 CYP450 2C8. The method, then:
The CYP450 inhibition was determined by measuring the reaction products of known CYP450 substrates (probes). Probe solutions were prepared by diluting stock solutions with buffer (100 mM Tris-HCl, pH 7.5, and 0.5 mM EDTA) to the final indicated concentrations (Figure 5), and adding 180 µL of pooled human liver microsomes (20 mg/mL) (BioIVT, West Sussex, UK). These probe solutions were dispensed (195 µL) into clear 96-well plates with low evaporation lids (Corning, Turin, Italy) and the plates were prewarmed to 37 °C in a thermomixer (Hamilton, Agrate Brianza, Italy). Next, 5 µL of the test compound or appropriate positive control (Table S4) were added to the wells and the plates were incubated for a further 5 min. Following this, the reactions were started by adding NADPH regenerating solution (50 µL, see previous Section 4.7) to each well. CYP450 mixtures containing phenacetin, rosiglitazone, mephenytoin, atorvastatin, and nifedipine probes were incubated for 10 min at 37 °C, whereas those with midazolam and diclofenac were incubated for 5 min at 37 °C. Aliquots (100 µL) from each reaction mixture were quenched in 200 µL acetonitrile, and the mixtures were sedimented at 3000 ×g for 10 min at 4 °C. The supernatants were diluted in water containing 5 ng/mL Rolipram as an internal standard for LC-MS/MS analysis. All incubations were carried out in triplicate.
Probe products were analyzed on an API4000 Qtrap mass spectrometer (Applied Biosystems/MDS SCIEX, Monza, Italy) coupled with an Acquity UPLC system (Waters, Milan, Italy) and a CTC-PAL auto-injector (CTC Analytics AG, Zwingen, Switzerland). […] The column temperature was maintained at 60 °C. The injected sample volume was 10 µL, and analytes were eluted at a flow rate of 800 µL/min in a gradient of eluent A (water with 0.1% formic acid) and eluent B (acetonitrile with 0.1% formic acid). […] The analytes were quantified in multiple reaction-monitoring mode. Data were processed, and the percentage control activity was calculated based on a comparison between the ratio of the sample peak area and the peak area.

Where [3] appears, read: atorvastatin probe, read-out: IC50 CYP450 3A4-ATR.
Where [4] appears, read: midazolam probe, read-out: IC50 CYP450 3A4- MDZ.
The mark [5] stands for this setting: nifedipine probe, read-out: IC50 CYP450 3A4-NIF.

Read-outs that look alike come from different tables or passages of the source.

T1 sequence (P10635 whole entry): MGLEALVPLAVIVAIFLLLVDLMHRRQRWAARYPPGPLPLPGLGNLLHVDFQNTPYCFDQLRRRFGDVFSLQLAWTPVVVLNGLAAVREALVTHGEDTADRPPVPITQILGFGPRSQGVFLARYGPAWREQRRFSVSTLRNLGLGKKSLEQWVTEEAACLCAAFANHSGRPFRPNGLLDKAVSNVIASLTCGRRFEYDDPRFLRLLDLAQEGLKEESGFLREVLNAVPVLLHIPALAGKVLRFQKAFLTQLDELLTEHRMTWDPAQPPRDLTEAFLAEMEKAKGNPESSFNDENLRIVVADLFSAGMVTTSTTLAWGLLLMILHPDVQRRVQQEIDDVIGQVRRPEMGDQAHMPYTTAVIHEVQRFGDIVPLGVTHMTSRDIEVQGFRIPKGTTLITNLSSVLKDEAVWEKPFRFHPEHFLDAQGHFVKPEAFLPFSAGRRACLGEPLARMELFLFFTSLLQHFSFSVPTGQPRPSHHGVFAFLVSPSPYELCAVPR
T2 sequence (P08684 whole entry): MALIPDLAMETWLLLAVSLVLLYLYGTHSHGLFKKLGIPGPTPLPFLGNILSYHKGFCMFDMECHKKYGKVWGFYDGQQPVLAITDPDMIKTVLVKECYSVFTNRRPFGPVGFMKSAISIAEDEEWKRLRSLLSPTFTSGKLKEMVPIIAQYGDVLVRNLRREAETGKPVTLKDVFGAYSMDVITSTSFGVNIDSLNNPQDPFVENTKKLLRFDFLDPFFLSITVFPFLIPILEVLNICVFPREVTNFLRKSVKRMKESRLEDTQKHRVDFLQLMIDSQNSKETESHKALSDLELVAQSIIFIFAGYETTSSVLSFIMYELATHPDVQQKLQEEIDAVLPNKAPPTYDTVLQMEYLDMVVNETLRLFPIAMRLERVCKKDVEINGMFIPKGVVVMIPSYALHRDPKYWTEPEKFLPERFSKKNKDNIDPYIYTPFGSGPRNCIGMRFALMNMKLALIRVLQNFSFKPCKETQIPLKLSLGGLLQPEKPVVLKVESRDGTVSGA

Regarding `CC(C)(C)OC(=O)/N=C(\NC(=O)OC(C)(C)C)Nc1cc(C#N)ccn1` [SB023], the IC50 at CYP2D6, on CYP3A4 (setting [3]), on CYP3A4 (setting [4]), on CYP3A4 (setting [5]) and at CYP2C8 was above 100 µM throughout. For the same molecule, the “Clh, int (predicted hepatic clearance)” value in data set [1] is 124.58 mL/min/kg; in data set [2], 25.75 mL/min/kg. For the same molecule, the “Clh (predicted in vivo hepatic clearance)” value in data set [1] is recorded as 50.53 mL/min/kg; in data set [2] it was 11.48 mL/min/kg. Also, the half-life at 0.5 µM is 0.43 h in data set [1] and 1.2 h in data set [2]. In addition, the microsomal CLint at 0.5 µM in data set [1] amounted to 53.9 µL/min/mg; in data set [2], 19.1 µL/min/mg. Also, in data set [2], the T1/2 stood at 1.214 h.
For the molecule `CC(C)(C)OC(=O)/N=C(\NC(=O)OC(C)(C)C)Nc1cc(Cl)ccn1` [SB002], the IC50 on CYP2D6, at CYP3A4 (setting [3]), at CYP3A4 (setting [4]), at CYP3A4 (setting [5]) and at CYP2C8 was above 100 µM throughout. Moreover, the “Clh, int (predicted hepatic clearance)” value in data set [1] was 62.99 mL/min/kg; in data set [2], 23.31 mL/min/kg. The “Clh (predicted in vivo hepatic clearance)” value is 36.18 mL/min/kg in data set [1] and 10.96 mL/min/kg in data set [2]. In addition, the half-life at 0.5 µM is 0.85 h in data set [1] and 1.35 h in data set [2]. The values for the intrinsic metabolic clearance (microsomal CLint) at 0.5 µM in data set [1] and in data set [2] were 27.3 µL/min/mg and 17.3 µL/min/mg, respectively. Further, the T1/2 in data set [2] turned out to be 1.342 h.
As for `Nc1cc(Cl)ccn1` [Compound 2-AP, 2-amino-4-chloropyridine, reference compound], the IC50 on CYP2D6 was above 100 µM. In data set [1], the “Clh, int (predicted hepatic clearance)” value was 14.63 mL/min/kg; the “Clh (predicted in vivo hepatic clearance)” value is reported as 12.48 mL/min/kg; the half-life at 0.5 µM is 3.66 h; the intrinsic clearance (microsomal CLint) at 0.5 µM was 6.33 µL/min/mg. The IC50 at CYP3A4 (setting [4]) was above 100 µM. In data set [2], the “Clh, int (predicted hepatic clearance)” value is on record as 34.33 mL/min/kg; the “Clh (predicted in vivo hepatic clearance)” value was 12.91 mL/min/kg; the half-life at 0.5 µM came out at 0.911 h; the microsomal CLint at 0.5 µM stood at 25.4 µL/min/mg. On CYP2C8, the IC50 was above 100 µM.

As a reminder, the IC50 is the concentration that inhibits the measured activity by half. Usually half-life stands for how long it takes for the measured level to halve. As usually defined, the microsomal CLint is the capacity of the preparation to metabolise the compound, expressed as a volume cleared per time.

(Values after paper PMC7177833, “2-Aminopyridine Analogs Inhibit Both Enzymes of the Glyoxylate Shunt in Pseudomonas aeruginosa” (International Journal of Molecular Sciences, 2020).)
